13 compounds from US20240342292A1, “Compounds for the Degradation of EGFR Kinase” (BeiGene Switzerland GmbH, priority 2021, published 2024) can be followed below.

One experiment deals with T1, L858R/T790M/C797S EGFR (Homo sapiens, UniProt P00533, C797S/L858R/T790M).
T1 construct: expressed in transfected cells; host or cells: H1975 clone #25 (lentiviral over-expression, endogenous EGFR knocked out by sgRNA)
Kind of experiment: EGFR degradation HTRF assay in H1975-clone #25 (LTC) cells. As to conditions: 16h treatment; for DC50: HTRF; for Dmax: NCI-H1975, H1975 # 25-LTC (L858R/T790M/C797S). It counts as cell-based. In outline: (§1)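 Remaining EGFR protein was measured by HTRF (337 nm excitation, 665/620 nm emission) in lysates after overnight antibody incubation. Cells had been exposed for 16 h to an 8-point, 5-fold series starting at 10 uM, and DC50 values were fitted with a Hill equation.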

The subject of another experiment is Del19/T790M/C797S EGFR. Put plainly: EGFR degradation HTRF assay in H1975-clone #28 (DTC) cells. It counts as cell-based. The conditions noted are these: H1975 # 28 DTC (Del19/T790M/C797S), 16h treatment; for DC50: HTRF; for Dmax (%): maximum percentage of degradation. In outline: as §1
Setting [1] is: H1975 # 25-LTC (L858R/T790M/C797S).
The mark [2] stands for this setting: maximum percentage of degradation.

With `COC[C@@H]1CN(C2CCN(c3cc(F)c([C@H]4CCC(=O)NC4=O)c(F)c3)CC2)CCN1c1ccc2c(c1)N1C[C@H](C)CCCOc3c(cnn3C)-c3cc(cc(C)n3)C(=O)/N=C/1N2` [Example 386, (R)-3-(2,6-difluoro-4-(4-((S)-3-(methoxymethyl)-4-((R,E)-1^1,2^6,7-trimethyl-3-oxo-5^2,5^3-dihydro-1^1H,5^1H-11-oxa-4-aza-5(2,1)-benzo[d]imidazola-2(2,4)-pyridina-1(4,5)-pyrazolacycloundecaphane-5-yl)piperazin-1-yl)piperidin-1-yl)phenyl)piperidine-2,6-dione], the DC50 was 2700 pM at L858R/T790M/C797S EGFR (setting [1]) and 2010 pM in the experiment with Del19/T790M/C797S EGFR. The Dmax on L858R/T790M/C797S EGFR (setting [2]) was 86.6%. Besides, the “Dmax (%)” value in the experiment on Del19/T790M/C797S EGFR came out at 72.30%.

For the compound `Cc1cc2cc(n1)-c1cnn(C)c1OCC[C@H]1C[C@@H]1CN1/C(=N/C2=O)Nc2ccc(N3CCN(CC4CN(c5cc(F)c([C@H]6CCC(=O)NC6=O)c(F)c5)C4)CC3)cc21` [Example 461, (R)-3-(4-(3-((4-((7^1S,7^2R,E)-1^1,2^6-dimethyl-3-oxo-5^2,5^3-dihydro-1^1H,5^1H-10-oxa-4-aza-5(2,1)-benzo[d]imidazola-2(2,4)-pyridina-1(4,5)-pyrazola-7(1,2)-cyclopropanacyclodecaphane-5^6-yl)piperazin-1-yl)methyl)azetidin-1-yl)-2,6-difluorophenyl)piperidine-2,6-dione], the DC50 on L858R/T790M/C797S EGFR (setting [1]) stood at 1640 pM; in the experiment with Del19/T790M/C797S EGFR, 702 pM. On L858R/T790M/C797S EGFR (setting [2]), this compound had a Dmax of 90.6%. The “Dmax (%)” value with Del19/T790M/C797S EGFR amounted to 84.7%.

As to `Cc1cc2cc(n1)-c1cnn(C)c1OCCC[C@@H](C)CN1/C(=N/C2=O)Nc2ccc(C(=O)N3CC(NCCc4cc(F)c([C@H]5CCC(=O)NC5=O)c(F)c4)C3)cc21` [Example 305, (R)-3-(2,6-difluoro-4-(2-((1-((R,E)-1^1,2^6,7-trimethyl-3-oxo-5^2,5^3-dihydro-1^1H,5^1H-11-oxa-4-aza-5(2,1)-benzo[d]imidazola-2(2,4)-pyridina-1(4,5)-pyrazolacycloundecaphane-5^6-carbonyl)azetidin-3-yl)amino)ethyl)phenyl)piperidine-2,6-dione], the DC50 on L858R/T790M/C797S EGFR (setting [1]) was 861 pM; in the experiment on Del19/T790M/C797S EGFR, 668 pM. This compound gave a Dmax on L858R/T790M/C797S EGFR (setting [2]) of 90.6%. For the same compound, in the experiment on Del19/T790M/C797S EGFR, the “Dmax (%)” value was determined as 80.65%.

Consider `CCN(C(=O)c1ccc2c(c1)N1C[C@H](C)CCCOc3c(cnn3C)-c3cc(cc(C)n3)C(=O)/N=C/1N2)C1CCN(C2CCN(c3cc(F)c([C@H]4CCC(=O)NC4=O)c(F)c3)CC2)CC1` [Example 288, (R,E)-N-(1′-(4-((R)-2,6-dioxopiperidin-3-yl)-3,5-difluorophenyl)-[1,4′-bipiperidin]-4-yl)-N-ethyl-1^1, 2^6,7-trimethyl-3-oxo-5^2,5^3-dihydro-1^1H,5^1H-11-oxa-4-aza-5(2,1)-benzo[d]imidazola-2(2,4)-pyridina-1(4,5)-pyrazolacycloundecaphane-5^6-carboxamide], for which half-maximal degradation at L858R/T790M/C797S EGFR (setting [1]) (DC50) was put at 662 pM. In addition, the maximal degradation (Dmax) at L858R/T790M/C797S EGFR (setting [2]) came to 92.8%. Moreover, in the experiment on Del19/T790M/C797S EGFR, the DC50 is 488 pM and the “Dmax (%)” value was found to be 79.62%.

Turning to `Cc1cc2cc(n1)-c1cnn(C)c1OCCC[C@@H](C)CN1/C(=N/C2=O)Nc2ccc(C(=O)N3CC[C@H]4CN(CCc5cc(F)c([C@H]6CCC(=O)NC6=O)c(F)c5)CC[C@H]43)cc21` [Example 304, (R)-3-(2,6-difluoro-4-(2-((3aS,7aR)-1-((R,E)-1^1,2^6,7-trimethyl-3-oxo-5^2,5^3-dihydro-1^1H,5^1H-11-oxa-4-aza-5(2,1)-benzo[d]imidazola-2(2,4)-pyridina-1(4,5)-pyrazolacycloundecaphane-5^6-carbonyl)octahydro-5H-pyrrolo[3,2-c]pyridin-5-yl)ethyl)phenyl)piperidine-2,6-dione], the DC50 on L858R/T790M/C797S EGFR (setting [1]) was determined as 610 pM. The compound further returned a Dmax at L858R/T790M/C797S EGFR (setting [2]) of 79.9%. Further, in the experiment with Del19/T790M/C797S EGFR, the 50% degradation concentration (DC50) amounted to 595 pM and the “Dmax (%)” value is 78.73%.

In turn, `Cc1cc2cc(n1)-c1cnn(C)c1OCCC[C@@H](C)CN1/C(=N/C2=O)Nc2ccc(C(=O)N(CCN3CCC(c4cc(F)c([C@H]5CCC(=O)NC5=O)c(F)c4)CC3)C(C)C)cc21` [Example 283, (R,E)-N-(2-(4-(4-((R)-2,6-dioxopiperidin-3-yl)-3,5-difluorophenyl)piperidin-1-yl)ethyl)-N-isopropyl-1^1,2^6,7-trimethyl-3-oxo-5^2,5^3-dihydro-1^1H,5^1H-11-oxa-4-aza-5(2,1)-benzo[d]imidazola-2(2,4)-pyridina-1(4,5)-pyrazolacycloundecaphane-5^6-carboxamide] returned a DC50 on L858R/T790M/C797S EGFR (setting [1]) of 494 pM. The compound also showed a Dmax at L858R/T790M/C797S EGFR (setting [2]) of 80.2%. Also, in the experiment with Del19/T790M/C797S EGFR, the DC50 was determined as 617 pM and the “Dmax (%)” value is given as 72.52%.

`Cc1cc2cc(n1)-c1cnn(C)c1OCCC[C@@H](C)CN1/C(=N/C2=O)Nc2ccc(C(=O)N(C3CC3)C3CCN(CCc4cc(F)c([C@H]5CCC(=O)NC5=O)c(F)c4)CC3)cc21` [Example 239, (R,E)-N-cyclopropyl-N-(1-(4-((R)-2,6-dioxopiperidin-3-yl)-3,5-difluorophenethyl)piperidin-4-yl)-1^1, 2^6,7-trimethyl-3-oxo-5^2,5^3-dihydro-1^1H,5^1H-11-oxa-4-aza-5(2,1)-benzo[d]imidazola-2(2,4)-pyridina-1(4,5)-pyrazolacycloundecaphane-5^6-carboxamide]: half-maximal degradation on L858R/T790M/C797S EGFR (setting [1]) (DC50) was put at 604 pM. The Dmax on L858R/T790M/C797S EGFR (setting [2]) came out at 87.9%. Moreover, in the experiment with Del19/T790M/C797S EGFR, half-maximal degradation (DC50) was put at 205 pM and the “Dmax (%)” value worked out at 83.87%.

Turning to `Cc1cc2cc(n1)-c1cnn(C)c1OCC[C@H]1C[C@@H]1CN1/C(=N/C2=O)Nc2ccc(N3CCN(C4CCN(c5cc(F)c([C@H]6CCC(=O)NC6=O)c(F)c5)CC4)CC3)cc21` [Example 391, (R)-3-(4-(4-(4-((7^1S,7^2R,E)-1^1,2^6-dimethyl-3-oxo-5^2,5^3-dihydro-1^1H,5^1H-10-oxa-4-aza-5(2,1)-benzo[d]imidazola-2(2,4)-pyridina-1(4,5)-pyrazola-7(1,2)-cyclopropanacyclodecaphane-5^6-yl)piperazin-1-yl)piperidin-1-yl)-2,6-difluorophenyl)piperidine-2,6-dione], the DC50 at L858R/T790M/C797S EGFR (setting [1]) was found to be 1560 pM. Besides, the Dmax at L858R/T790M/C797S EGFR (setting [2]) was 87.5%. For the same compound, in the experiment with Del19/T790M/C797S EGFR, half-maximal degradation (DC50) was put at 1540 pM and the “Dmax (%)” value is on record as 85.34%.

Take “(R,E)-N—((S)-1-(4-((R)-2,6-dioxopiperidin-3-yl)-3,5-difluorophenethyl)azepan-4-yl)-N,1^1,2^6,7-tetramethyl-3-oxo-5^2,5^3-dihydro-1^1H,5^1H-11-oxa-4-aza-5(2,1)-benzo[d]imidazola-2(2,4)-pyridina-1(4,5)-pyrazolacycloundecaphane-5^6-carboxamide [Example 340]”: the DC50 turned out to be 280 pM on L858R/T790M/C797S EGFR (setting [1]) and 587 pM in the experiment on Del19/T790M/C797S EGFR. For the same compound, the “Dmax (%)” value on L858R/T790M/C797S EGFR (H1975 # 25-LTC (L858R/T790M/C797S), maximum percentage of degradation) was found to be 91.69%; with Del19/T790M/C797S EGFR it was 83.73%.

`Cc1cc2cc(n1)-c1cnn(C)c1OCCC[C@@H](C)CN1/C(=N/C2=O)Nc2ccc(C(=O)N(C)[C@@H]3CCN(CCc4cc(F)c([C@H]5CCC(=O)NC5=O)c(F)c4)[C@@H](C)C3)cc21` [Example 258, (R,E)-N—((2S,4R)-1-(4-((R)-2,6-dioxopiperidin-3-yl)-3,5-difluorophenethyl)-2-methylpiperidin-4-yl) -N,1^1,2^6,7-tetramethyl-3-oxo-5^2,5^3-dihydro-1^1H,5^1H-11-oxa-4-aza-5(2,1)-benzo[d]imidazola-2(2,4)-pyridina-1(4,5)-pyrazolacycloundecaphane-5^6-carboxamide]: at L858R/T790M/C797S EGFR (setting [1]), the DC50 is 381 pM. Moreover, the Dmax at L858R/T790M/C797S EGFR (setting [2]) stood at 88.2%. Besides, in the experiment with Del19/T790M/C797S EGFR, the half-maximal degradation concentration (DC50) is 577 pM and the “Dmax (%)” value was found to be 81.96%.

Consider `Cc1cc2cc(n1)-c1cnn(C)c1OCCC[C@@H](C)CN1/C(=N/C2=O)Nc2ccc(C(=O)N(C)C3CCN(CCc4cccc5c4C(C)(C)C(=O)N5C4CCC(=O)NC4=O)CC3)cc21` (stereo partly drawn) [Example 317, (7R,E)-N-(1-(2-(1-(2,6-dioxopiperidin-3-yl)-3,3-dimethyl-2-oxoindolin-4-yl)ethyl)piperidin-4-yl)-N,1^1,2^6,7-tetramethyl-3-oxo-5^2,5^3-dihydro-1^1H,5^1H-11-oxa-4-aza-5(2,1)-benzo[d]imidazola-2(2,4)-pyridina-1(4,5)-pyrazolacycloundecaphane-5^6-carboxamide], for which the DC50 at L858R/T790M/C797S EGFR (setting [1]) was determined as 1140 pM; in the experiment with Del19/T790M/C797S EGFR, 728 pM. Besides, the Dmax at L858R/T790M/C797S EGFR (setting [2]) amounted to 80.2%. Moreover, the “Dmax (%)” value with Del19/T790M/C797S EGFR stood at 52.86%.

On to `Cc1cc2cc(n1)-c1cnn(C)c1OCCC[C@@H](C)CN1/C(=N/C2=O)Nc2ccc(C(=O)N(C)C[C@@H]3CCN(CCc4cc(F)c([C@H]5CCC(=O)NC5=O)c(F)c4)CC3(F)F)cc21` [Example 273, (R,E)-N—(((S)-1-(4-((R)-2,6-dioxopiperidin-3-yl)-3,5-difluorophenethyl)-3,3-difluoropiperidin-4-yl)methyl)-N,1′,2,7-tetramethyl-3-oxo-5^2,5^3-dihydro-1^1H,5^1H-11-oxa-4-aza-5(2,1)-benzo[d]imidazola-2(2,4)-pyridina-1(4,5)-pyrazolacycloundecaphane-5^6-carboxamide], for which the DC50 at L858R/T790M/C797S EGFR (setting [1]) was found to be 4580 pM. Further, at L858R/T790M/C797S EGFR (setting [2]), the Dmax was 88.8%. Besides, in the experiment with Del19/T790M/C797S EGFR, half-maximal degradation (DC50) was put at 489 pM and the “Dmax (%)” value is on record as 66.66%.

Consider `Cc1cc2cc(n1)-c1cnn(C)c1OCCC[C@@H](C)CN1/C(=N/C2=O)Nc2ccc(CN3CCN(C(=O)[C@@H]4CCN(c5cc(F)c([C@H]6CCC(=O)NC6=O)c(F)c5)C4)C[C@@H]3C)cc21` [Example 99], for which the DC50 is 1400 pM at L858R/T790M/C797S EGFR (setting [1]) and 700 pM in the experiment with Del19/T790M/C797S EGFR. The compound also came in with a Dmax on L858R/T790M/C797S EGFR (setting [2]) of 82.7%. In the experiment on Del19/T790M/C797S EGFR, the “Dmax (%)” value stood at 75.6%.
